Experimental data: patent US12404241B2 (Celgene Corporation, priority 2018, dated 2025)

Target: T1, AR (Homo sapiens, UniProt P10275)
T1 construct: endogenous in cells; host or cells: VCaP cells
T1 sequence (P10275 1-920): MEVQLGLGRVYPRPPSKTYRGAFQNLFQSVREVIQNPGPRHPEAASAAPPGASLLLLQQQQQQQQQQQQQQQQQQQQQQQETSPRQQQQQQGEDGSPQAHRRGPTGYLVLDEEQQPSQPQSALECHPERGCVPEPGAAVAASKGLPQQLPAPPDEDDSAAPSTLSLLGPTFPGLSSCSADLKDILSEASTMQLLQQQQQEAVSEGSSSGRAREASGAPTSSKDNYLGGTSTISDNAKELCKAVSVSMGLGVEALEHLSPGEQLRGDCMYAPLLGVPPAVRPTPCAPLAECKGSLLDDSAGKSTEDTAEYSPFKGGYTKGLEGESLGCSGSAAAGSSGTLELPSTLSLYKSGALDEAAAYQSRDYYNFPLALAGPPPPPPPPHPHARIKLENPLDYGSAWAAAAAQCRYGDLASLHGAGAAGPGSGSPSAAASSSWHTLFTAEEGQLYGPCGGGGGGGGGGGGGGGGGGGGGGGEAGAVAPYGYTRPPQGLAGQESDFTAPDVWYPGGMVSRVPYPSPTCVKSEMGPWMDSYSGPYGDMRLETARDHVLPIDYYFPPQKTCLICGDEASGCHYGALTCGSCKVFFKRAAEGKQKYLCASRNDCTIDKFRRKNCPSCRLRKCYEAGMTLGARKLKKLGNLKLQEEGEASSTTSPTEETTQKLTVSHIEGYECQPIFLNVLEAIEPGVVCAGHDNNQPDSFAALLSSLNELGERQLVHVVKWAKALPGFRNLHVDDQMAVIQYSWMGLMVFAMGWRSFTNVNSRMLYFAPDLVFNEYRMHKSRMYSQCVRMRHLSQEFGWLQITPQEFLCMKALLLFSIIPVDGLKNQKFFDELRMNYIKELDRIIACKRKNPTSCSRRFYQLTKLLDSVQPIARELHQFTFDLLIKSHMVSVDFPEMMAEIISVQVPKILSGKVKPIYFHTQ
Assay: VCAP AR Degradation Assay
Assay type: cell-based
Conditions: for Y (AR degradation efficiency, % of DMSO control): class symbols *; for DC50: class symbols A-C, read-out: DC50
Outline: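 Compounds were plated as 10-point 1:3 series reaching 5 μM final, then VCaP cells were seeded onto them and incubated 24 h at 37 °C. Cells were lysed cold, and total AR was measured by sandwich ELISA relative to 0.1% DMSO wells.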

## CCc1cc(N2C(=S)N(c3ccc(C#N)c(C(F)(F)F)c3)C(=O)C2(C)C)ccc1OCCN1CCN(CC(=O)Nc2cccc(NC3CCC(=O)NC3=O)c2)C(C)(C)C1 (stereo not drawn) [Example 95, 2-(4-(2-(4-(3-(4-cyano-3-(trifluoromethyl)phenyl)-5,5-dimethyl-4-oxo-2-thioxoimidazolidin-1-yl)-2-ethylphenoxy)ethyl)-2,2-dimethylpiperazin-1-yl)-N-(3-(2,6-dioxopiperidin-3-ylamino)phenyl)acetamide]
  Y (AR degradation efficiency, % of DMSO control): * (0<Y<=25%)
  DC50: < 100 nM

## Cc1c(N2C(=O)C(C)(C)N(c3ccc(OCCN4CCN(CC(=O)Nc5cccc(NC6CCC(=O)NC6=O)c5)CC4)c(F)c3)C2=S)ccc(C#N)c1C(F)(F)F (stereo not drawn) [Example 96, 2-(4-(2-(4-(3-(4-cyano-2-methyl-3-(trifluoromethyl)phenyl)-5,5-dimethyl-4-oxo-2-thioxoimidazolidin-1-yl)-2-fluorophenoxy)ethyl)piperazin-1-yl)-N-(3-(2,6-dioxopiperidin-3-ylamino)phenyl)acetamide]
  Y (AR degradation efficiency, % of DMSO control): *** (35%<Y<50%)
  DC50: < 100 nM

## CCc1cc(N2C(=S)N(c3cnc(C#N)c(C(F)(F)F)c3)C(=O)C2(C)C)ccc1OCCN1CCN(CC(=O)Nc2cccc(NC3CCC(=O)NC3=O)c2)C(C)(C)C1 (stereo not drawn) [Example 97, 2-(4-(2-(4-(3-(6-cyano-5-(trifluoromethyl)pyridin-3-yl)-5,5-dimethyl-4-oxo-2-thioxoimidazolidin-1-yl)-2-ethylphenoxy)ethyl)-2,2-dimethylpiperazin-1-yl)-N-(3-(2,6-dioxopiperidin-3-ylamino)phenyl)acetamide]
  Y (AR degradation efficiency, % of DMSO control): * (0<Y<=25%)
  DC50: < 100 nM

## CCc1cc(N2C(=S)N(c3ccc(C#N)c(C(F)(F)F)c3)C(=O)C2(C)C)ccc1OCCN1CCN(CC(=O)Nc2cccc(NC3CCC(=O)NC3=O)c2)C2(CC2)C1 (stereo not drawn) [Example 98, 2-(7-(2-(4-(3-(4-cyano-3-(trifluoromethyl)phenyl)-5,5-dimethyl-4-oxo-2-thioxoimidazolidin-1-yl)-2-ethylphenoxy)ethyl)-4,7-diazaspiro[2.5]octan-4-yl)-N-(3-(2,6-dioxopiperidin-3-ylamino)phenyl)acetamide]
  Y (AR degradation efficiency, % of DMSO control): ** (25%<Y<=35%)
  DC50: < 100 nM

## CCc1cc(N2C(=S)N(c3cnc(C#N)c(C(F)(F)F)c3)C(=O)C2(C)C)ccc1OCCN1CCN(CC(=O)Nc2cccc(NC3CCC(=O)NC3=O)c2)C2(CC2)C1 (stereo not drawn) [Example 99, 2-(7-(2-(4-(3-(6-cyano-5-(trifluoromethyl)pyridin-3-yl)-5,5-dimethyl-4-oxo-2-thioxoimidazolidin-1-yl)-2-ethylphenoxy)ethyl)-4,7-diazaspiro[2.5]octan-4-yl)-N-(3-(2,6-dioxopiperidin-3-ylamino)phenyl)acetamide]
  Y (AR degradation efficiency, % of DMSO control): * (0<Y<=25%)
  DC50: < 100 nM

## CCc1cc(N2C(=S)N(c3cnc(C#N)c(C(F)(F)F)c3)C(=O)C2(C)C)ccc1OCCN1CCN(CC(=O)Nc2cc(NC3CCC(=O)NC3=O)cc(F)c2F)[C@H](C)C1 (stereo partly drawn) [Example 100, 2-((R)-4-(2-(4-(3-(6-cyano-5-(trifluoromethyl)pyridin-3-yl)-5,5-dimethyl-4-oxo-2-thioxoimidazolidin-1-yl)-2-ethylphenoxy)ethyl)-2-methylpiperazin-1-yl)-N-(5-(2,6-dioxopiperidin-3-ylamino)-2,3-difluorophenyl)acetamide]
  Y (AR degradation efficiency, % of DMSO control): * (0<Y<=25%)
  DC50: < 100 nM

## CCc1cc(N2C(=S)N(c3ccc(C#N)c(C(F)(F)F)c3)C(=O)C2(C)C)ccc1OCCN1CCN(CC(=O)Nc2cc(Cl)cc(NC3CCC(=O)NC3=O)c2)C2(CC2)C1 (stereo not drawn) [Example 101, N-(3-chloro-5-(2,6-dioxopiperidin-3-ylamino)phenyl)-2-(7-(2-(4-(3-(4-cyano-3-(trifluoromethyl)phenyl)-5,5-dimethyl-4-oxo-2-thioxoimidazolidin-1-yl)-2-ethylphenoxy)ethyl)-4,7-diazaspiro[2.5]octan-4-yl)acetamide]
  Y (AR degradation efficiency, % of DMSO control): * (0<Y<=25%)
  DC50: < 100 nM

## CCc1cc(N2C(=S)N(c3cnc(C#N)c(C(F)(F)F)c3)C(=O)C2(C)C)ccc1OCCN1CCN(CC(=O)Nc2cc(Cl)cc(NC3CCC(=O)NC3=O)c2)C2(CC2)C1 (stereo not drawn) [Example 102, N-(3-chloro-5-(2,6-dioxopiperidin-3-ylamino)phenyl)-2-(7-(2-(4-(3-(6-cyano-5-(trifluoromethyl)pyridin-3-yl)-5,5-dimethyl-4-oxo-2-thioxoimidazolidin-1-yl)-2-ethylphenoxy)ethyl)-4,7-diazaspiro[2.5]octan-4-yl)acetamide]
  Y (AR degradation efficiency, % of DMSO control): * (0<Y<=25%)
  DC50: < 100 nM

## CCc1cc(N2C(=S)N(c3ccc(C#N)c(C(F)(F)F)c3)C(=O)C23CCC3)ccc1OCCN1CCN(CC(=O)Nc2cc(Cl)cc(NC3CCC(=O)NC3=O)c2)[C@H](C)C1 (stereo partly drawn) [Example 103, N-(3-chloro-5-(2,6-dioxopiperidin-3-ylamino)phenyl)-2-((R)-4-(2-(4-(7-(4-cyano-3-(trifluoromethyl)phenyl)-8-oxo-6-thioxo-5,7-diazaspiro[3.4]octan-5-yl)-2-ethylphenoxy)ethyl)-2-methylpiperazin-1-yl)acetamide]
  Y (AR degradation efficiency, % of DMSO control): * (0<Y<=25%)
  DC50: < 100 nM

## CCc1cc(N2C(=S)N(c3ccc(C#N)c(C(F)(F)F)c3)C(=O)C23CCC3)ccc1OCCN1CCN(CC(=O)Nc2cc(F)cc(NC3CCC(=O)NC3=O)c2)[C@H](C)C1 (stereo partly drawn) [Example 104, 2-((R)-4-(2-(4-(7-(4-cyano-3-(trifluoromethyl)phenyl)-8-oxo-6-thioxo-5,7-diazaspiro[3.4]octan-5-yl)-2-ethylphenoxy)ethyl)-2-methylpiperazin-1-yl)-N-(3-(2,6-dioxopiperidin-3-ylamino)-5-fluorophenyl)acetamide]
  Y (AR degradation efficiency, % of DMSO control): * (0<Y<=25%)
  DC50: < 100 nM

## CCc1cc(N2C(=S)N(c3ccc(C#N)c(C(F)(F)F)c3)C(=O)C23CCC3)ccc1OCCN1CCN(CC(=O)Nc2cccc(NC3CCC(=O)NC3=O)c2)[C@H](C)C1 (stereo partly drawn) [Example 105, 2-((R)-4-(2-(4-(7-(4-cyano-3-(trifluoromethyl)phenyl)-8-oxo-6-thioxo-5,7-diazaspiro[3.4]octan-5-yl)-2-ethylphenoxy)ethyl)-2-methylpiperazin-1-yl)-N-(3-(2,6-dioxopiperidin-3-ylamino)phenyl)acetamide]
  Y (AR degradation efficiency, % of DMSO control): * (0<Y<=25%)
  DC50: < 100 nM

## CCc1cc(N2C(=S)N(c3cnc(C#N)c(C(F)(F)F)c3)C(=O)C23CCC3)ccc1OCCN1CCN(CC(=O)Nc2cc(Cl)cc(NC3CCC(=O)NC3=O)c2)[C@H](C)C1 (stereo partly drawn) [Example 106, N-(3-chloro-5-(2,6-dioxopiperidin-3-ylamino)phenyl)-2-((R)-4-(2-(4-(7-(6-cyano-5-(trifluoromethyl)pyridin-3-yl)-8-oxo-6-thioxo-5,7-diazaspiro[3.4]octan-5-yl)-2-ethylphenoxy)ethyl)-2-methylpiperazin-1-yl)acetamide]
  Y (AR degradation efficiency, % of DMSO control): * (0<Y<=25%)
  DC50: < 100 nM

## CCc1cc(N2C(=S)N(c3cnc(C#N)c(C(F)(F)F)c3)C(=O)C23CCC3)ccc1OCCN1CCN(CC(=O)Nc2cc(F)cc(NC3CCC(=O)NC3=O)c2)[C@H](C)C1 (stereo partly drawn) [Example 107, 2-((R)-4-(2-(4-(7-(6-cyano-5-(trifluoromethyl)pyridin-3-yl)-8-oxo-6-thioxo-5,7-diazaspiro[3.4]octan-5-yl)-2-ethylphenoxy)ethyl)-2-methylpiperazin-1-yl)-N-(3-(2,6-dioxopiperidin-3-ylamino)-5-fluorophenyl)acetamide]
  Y (AR degradation efficiency, % of DMSO control): * (0<Y<=25%)
  DC50: < 100 nM

## CCc1cc(N2C(=S)N(c3cnc(C#N)c(C(F)(F)F)c3)C(=O)C23CCC3)ccc1OCCN1CCN(CC(=O)Nc2cccc(NC3CCC(=O)NC3=O)c2)[C@H](C)C1 (stereo partly drawn) [Example 108, 2-((R)-4-(2-(4-(7-(6-cyano-5-(trifluoromethyl)pyridin-3-yl)-8-oxo-6-thioxo-5,7-diazaspiro[3.4]octan-5-yl)-2-ethylphenoxy)ethyl)-2-methylpiperazin-1-yl)-N-(3-(2,6-dioxopiperidin-3-ylamino)phenyl)acetamide]
  Y (AR degradation efficiency, % of DMSO control): * (0<Y<=25%)
  DC50: < 100 nM

## CCc1cc(N2C(=S)N(c3ccc(C#N)c(C(F)(F)F)c3)C(=O)C2(C)C)ccc1OCCN1CCN(CC(=O)Nc2cc(F)cc(NC3CCC(=O)NC3=O)c2)C2(CC2)C1 (stereo not drawn) [Example 109, 2-(7-(2-(4-(3-(4-cyano-3-(trifluoromethyl)phenyl)-5,5-dimethyl-4-oxo-2-thioxoimidazolidin-1-yl)-2-ethylphenoxy)ethyl)-4,7-diazaspiro[2.5]octan-4-yl)-N-(3-(2,6-dioxopiperidin-3-ylamino)-5-fluorophenyl)acetamide]
  Y (AR degradation efficiency, % of DMSO control): * (0<Y<=25%)
  DC50: < 100 nM
